Legend:
Format in all cases: in vivo
[1] = system: house fly (Musca domeestica); assay: Test Example 3: treated filter paper with sucrose bait, house fly female adults, mortality; settings: 24 h
Procedure: On the bottom of a polyethylene cup of 5.5 cm in diameter was placed a filter paper of the same size, to which a water dilution (500 ppm) of each of the formulations obtained from present compounds 1, 2, 3, 4, 5, 6, 7, 8, 9, 10, 11, 12, 13, 14, 15, 16, 17, 18, 19, 20, 21, 25, 26, 27, 28, 29, 32, 33, 34, 35, 36, 37, 38, 39, 40, 41, 42, 43, 44, 45, 47, 51, 52, 53, 54, 55, 60, and 61 according to Formulation Example 1 was added dropwise in an amount of 0.7 ml, and the cup was uniformly charged with about 30 mg of sucrose as a bait. Ten female adults of house fly (Musca domeestica) were set free in each cup, which was then kept covered. After 1 day, their survival was examined to determine the mortality.

[2] = system: common mosquito (Culex pipiens pallens); assay: Test Example 4: treated water, common mosquito final-instar larvae, mortality; settings: 192 h
[3] = system: German cockroach (Blattella germanica); assay: Test Example 2: treated filter paper with sucrose bait, German cockroach male adults, mortality; settings: 144 h

NC(=Nc1c(Br)cc(C(F)(F)F)cc1Br)C(F)(F)C(F)(F)F [present compound 17, N-(2,6-Dibromo-4-trifluoromethylphenyl)-2,2,3,3,3-pentafluoropropionamidine]
100%: mortality at 500 µg/mL [1] | mortality at 3.5 ppm [2] | mortality at 500 µg/mL [3]

NC(=Nc1c(Cl)cc(OC(F)(F)F)cc1Cl)C(F)(F)C(F)(F)F [present compound 18, N-(2,6-Dichloro-4-trifluoromethoxyphenyl)-2,2,3,3,3-pentafluoropropionamidine]
100%: mortality at 500 µg/mL [1] | mortality at 3.5 ppm [2] | mortality at 500 µg/mL [3]

NC(=Nc1c(F)cc(C(F)(F)F)cc1Cl)C(F)(F)C(F)(F)F [present compound 19, N-(2-Chloro-6-fluoro-4-trifluoromethylphenyl)-2,2,3,3,3-pentafluoropropionamidine]
100%: mortality at 500 µg/mL [1] | mortality at 3.5 ppm [2] | mortality at 500 µg/mL [3]

NC(=Nc1c(Cl)cc(C(F)(F)F)cc1Cl)C(F)(F)C(F)F [present compound 20, N-(2,6-Dichloro-4-trifluoromethylphenyl)-2,2,3,3-tetrafluoropropionamidine]
100%: mortality at 500 µg/mL [1] | mortality at 3.5 ppm [2] | mortality at 500 µg/mL [3]

NC(=Nc1c([N+](=O)[O-])cc(C(F)(F)F)cc1[N+](=O)[O-])C(F)(F)C(F)(F)C(F)(F)F [present compound 21, N-(2,6-Dinitro-4-trifluoromethylphenyl)-2,2,3,3,4,4,4-heptafluorobutyramidine]
100%: mortality at 500 µg/mL [1] | mortality at 3.5 ppm [2] | mortality at 500 µg/mL [3]

NC(=Nc1c([N+](=O)[O-])cc(C(F)(F)F)cc1[N+](=O)[O-])C(F)(F)Br [present compound 25, 2-Bromo-2,2-difluoro-N-(2,6-dinitro-4-trifluoromethylphenyl) acetamidine]
100%: mortality at 500 µg/mL [1] | mortality at 3.5 ppm [2] | mortality at 500 µg/mL [3]

NC(=Nc1c([N+](=O)[O-])cc(C(F)(F)F)cc1[N+](=O)[O-])C(F)(F)C(F)F [present compound 26, N-(2,6-Dinitro-4-trifluoromethylphenyl)-2,2,3,3-tetrafluoropropionamidine]
100%: mortality at 500 µg/mL [1] | mortality at 3.5 ppm [2] | mortality at 500 µg/mL [3]

NC(=Nc1c(Br)cc(C(F)(F)F)cc1[N+](=O)[O-])C(F)(F)C(F)(F)F [present compound 27, N-(2-Bromo-6-nitro-4-trifluoromethylphenyl)-2,2,3,3,3-pentafluoropropionamidine]
100%: mortality at 500 µg/mL [1] | mortality at 3.5 ppm [2] | mortality at 500 µg/mL [3]

NC(=Nc1c([N+](=O)[O-])cc(C(F)(F)F)cc1[N+](=O)[O-])C(F)(F)Cl [present compound 28, 2-Chloro-2,2-difluoro-N-(2,6-dinitro-4-trifluoromethylphenyl)acetamidine]
100%: mortality at 500 µg/mL [1] | mortality at 3.5 ppm [2] | mortality at 500 µg/mL [3]

NC(=Nc1c([N+](=O)[O-])cc(C(F)(F)F)cc1[N+](=O)[O-])C(F)(Br)C(F)(F)F (stereo not drawn) [present compound 29, 2-Bromo-N-(2,6-dinitro-4-trifluoromethylphenyl)-2,3,3,3-tetrafluoropropionamidine]
100%: mortality at 500 µg/mL [1] | mortality at 3.5 ppm [2] | mortality at 500 µg/mL [3]
